PubChem BioAssay (NCI)
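Each compound was tested at five concentrations against cells in 96-well plates for 48 hours. At the GI50, growth is halved. Definition used: TGI = concentration required for complete inhibition of growth.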

Columns and labels:
Experiment in all cases: NCI-60 cell line screen, 48 h
OVCAR-5 ovarian = system: OVCAR-5 ovarian
A498 renal = system: A498 renal
BT-549 breast = system: BT-549 breast
U251 CNS = system: U251 CNS
A549 NSCLC = system: A549 NSCLC
PC-3 prostate = system: PC-3 prostate
SNB-75 CNS = system: SNB-75 CNS
IGROV1 ovarian = system: IGROV1 ovarian
HS 578T breast = system: HS 578T breast
TK-10 renal = system: TK-10 renal
OVCAR-3 ovarian = system: OVCAR-3 ovarian
NCI-H226 lung = system: NCI-H226 lung
OVCAR-8 ovarian = system: OVCAR-8 ovarian
MDA-MB-468 breast = system: MDA-MB-468 breast
CCRF-CEM leukemia = system: CCRF-CEM leukemia
UACC-62 melanoma = system: UACC-62 melanoma
MOLT-4 leukemia = system: MOLT-4 leukemia
M14 melanoma = system: M14 melanoma
COLO 205 colon = system: COLO 205 colon
SW-620 colon = system: SW-620 colon
HOP-62 NSCLC = system: HOP-62 NSCLC
MDA-MB-231 breast = system: MDA-MB-231 breast
SK-MEL-28 melanoma = system: SK-MEL-28 melanoma
SNB-19 CNS = system: SNB-19 CNS
ACHN renal = system: ACHN renal
HCT-116 colon = system: HCT-116 colon
NCI/ADR-RES ovarian = system: NCI/ADR-RES ovarian
MCF7 breast = system: MCF7 breast
HT29 colon = system: HT29 colon
K-562 leukemia = system: K-562 leukemia
786-0 renal = system: 786-0 renal
MALME-3M melanoma = system: MALME-3M melanoma
NCI-H522 lung = system: NCI-H522 lung
KM12 colon = system: KM12 colon
SK-MEL-5 melanoma = system: SK-MEL-5 melanoma
HCC-2998 colon = system: HCC-2998 colon
OVCAR-4 ovarian = system: OVCAR-4 ovarian
SK-OV-3 ovarian = system: SK-OV-3 ovarian
NCI-H460 lung = system: NCI-H460 lung
SF-268 CNS = system: SF-268 CNS
SF-295 CNS = system: SF-295 CNS
MDA-MB-435 = system: MDA-MB-435
RPMI-8226 leukemia = system: RPMI-8226 leukemia
HCT-15 colon = system: HCT-15 colon
SK-MEL-2 melanoma = system: SK-MEL-2 melanoma
EKVX NSCLC = system: EKVX NSCLC
SN12C renal = system: SN12C renal
LOX IMVI melanoma = system: LOX IMVI melanoma
SR leukemia = system: SR leukemia
UO-31 renal = system: UO-31 renal
SF-539 CNS = system: SF-539 CNS
DU-145 prostate = system: DU-145 prostate
T-47D breast = system: T-47D breast
HOP-92 NSCLC = system: HOP-92 NSCLC
HL-60(TB) leukemia = system: HL-60(TB) leukemia
NCI-H23 lung = system: NCI-H23 lung
CAKI-1 renal = system: CAKI-1 renal
RXF 393 renal = system: RXF 393 renal

COc1ccc2cc([C@H](C)C(=O)NCc3ccccc3)ccc2c1
GI50 (OVCAR-5 ovarian): 7.84 µM | TGI (OVCAR-5 ovarian): > 100 µM | GI50 (A498 renal): > 100 µM | TGI (A498 renal): > 100 µM | GI50 (BT-549 breast): 5.47 µM | TGI (BT-549 breast): > 100 µM | GI50 (U251 CNS): 3.95 µM | TGI (U251 CNS): 73.9 µM | GI50 (A549 NSCLC): 6.86 µM | TGI (A549 NSCLC): > 100 µM | GI50 (PC-3 prostate): 4.44 µM | TGI (PC-3 prostate): > 100 µM | GI50 (SNB-75 CNS): 1.68 µM | TGI (SNB-75 CNS): 7.16 µM | GI50 (IGROV1 ovarian): 5.5 µM | TGI (IGROV1 ovarian): > 100 µM | GI50 (HS 578T breast): 3.11 µM | TGI (HS 578T breast): 51.7 µM | GI50 (TK-10 renal): 13 µM | TGI (TK-10 renal): > 100 µM | GI50 (OVCAR-3 ovarian): 3.21 µM | TGI (OVCAR-3 ovarian): 22.9 µM | GI50 (NCI-H226 lung): 7.83 µM | TGI (NCI-H226 lung): > 100 µM | GI50 (OVCAR-8 ovarian): 5.29 µM | TGI (OVCAR-8 ovarian): > 100 µM | GI50 (MDA-MB-468 breast): 1.98 µM | TGI (MDA-MB-468 breast): 5.52 µM | GI50 (CCRF-CEM leukemia): 3.9 µM | TGI (CCRF-CEM leukemia): > 100 µM | GI50 (UACC-62 melanoma): 3.75 µM | TGI (UACC-62 melanoma): > 100 µM | GI50 (MOLT-4 leukemia): 4.19 µM | TGI (MOLT-4 leukemia): > 100 µM | GI50 (M14 melanoma): 3.61 µM | TGI (M14 melanoma): > 100 µM | GI50 (COLO 205 colon): 3.03 µM | TGI (COLO 205 colon): 14 µM | GI50 (SW-620 colon): 3.43 µM | TGI (SW-620 colon): > 100 µM | GI50 (HOP-62 NSCLC): 4.02 µM | TGI (HOP-62 NSCLC): 76 µM | GI50 (MDA-MB-231 breast): 4.72 µM | TGI (MDA-MB-231 breast): > 100 µM | GI50 (SK-MEL-28 melanoma): 7.12 µM | TGI (SK-MEL-28 melanoma): > 100 µM | GI50 (SNB-19 CNS): 5.46 µM | TGI (SNB-19 CNS): 40.2 µM | GI50 (ACHN renal): 5.93 µM | TGI (ACHN renal): > 100 µM | GI50 (HCT-116 colon): 5.21 µM | TGI (HCT-116 colon): > 100 µM | GI50 (NCI/ADR-RES ovarian): 3.11 µM | TGI (NCI/ADR-RES ovarian): 12.2 µM | GI50 (MCF7 breast): 3.39 µM | TGI (MCF7 breast): > 100 µM | GI50 (HT29 colon): 3.08 µM | TGI (HT29 colon): > 100 µM | GI50 (K-562 leukemia): 2.19 µM | TGI (K-562 leukemia): > 100 µM | GI50 (786-0 renal): 7.94 µM | TGI (786-0 renal): > 100 µM | GI50 (MALME-3M melanoma): 3.88 µM | TGI (MALME-3M melanoma): > 100 µM | GI50 (NCI-H522 lung): 2.98 µM | TGI (NCI-H522 lung): > 100 µM | GI50 (KM12 colon): 4.56 µM | TGI (KM12 colon): > 100 µM | GI50 (SK-MEL-5 melanoma): 3.17 µM | TGI (SK-MEL-5 melanoma): > 100 µM | GI50 (HCC-2998 colon): 6.89 µM | TGI (HCC-2998 colon): > 100 µM | GI50 (OVCAR-4 ovarian): 49.3 µM | TGI (OVCAR-4 ovarian): > 100 µM | GI50 (SK-OV-3 ovarian): 3.76 µM | TGI (SK-OV-3 ovarian): 76.7 µM | GI50 (NCI-H460 lung): 3.83 µM | TGI (NCI-H460 lung): > 100 µM | GI50 (SF-268 CNS): 6.44 µM | TGI (SF-268 CNS): > 100 µM | GI50 (SF-295 CNS): 3.23 µM | TGI (SF-295 CNS): 16 µM | GI50 (MDA-MB-435): 1.71 µM | TGI (MDA-MB-435): 7.53 µM | GI50 (RPMI-8226 leukemia): 5.09 µM | TGI (RPMI-8226 leukemia): > 100 µM | GI50 (HCT-15 colon): 3.28 µM | TGI (HCT-15 colon): > 100 µM | GI50 (SK-MEL-2 melanoma): 3.93 µM | TGI (SK-MEL-2 melanoma): 34.7 µM | GI50 (EKVX NSCLC): 3.82 µM | TGI (EKVX NSCLC): > 100 µM | GI50 (SN12C renal): 4.26 µM | TGI (SN12C renal): > 100 µM | GI50 (LOX IMVI melanoma): 5.03 µM | TGI (LOX IMVI melanoma): > 100 µM | GI50 (SR leukemia): 1.78 µM | TGI (SR leukemia): > 100 µM | GI50 (UO-31 renal): 4.35 µM | TGI (UO-31 renal): 73.4 µM | GI50 (SF-539 CNS): 3.08 µM | TGI (SF-539 CNS): 11.7 µM | GI50 (DU-145 prostate): 5.52 µM | TGI (DU-145 prostate): > 100 µM | GI50 (T-47D breast): 4.75 µM | TGI (T-47D breast): > 100 µM | GI50 (HOP-92 NSCLC): 7.87 µM | TGI (HOP-92 NSCLC): 79.2 µM | GI50 (HL-60(TB) leukemia): 2.25 µM | TGI (HL-60(TB) leukemia): 7.52 µM | GI50 (NCI-H23 lung): 5.48 µM | TGI (NCI-H23 lung): > 100 µM | GI50 (CAKI-1 renal): 4.78 µM | TGI (CAKI-1 renal): > 100 µM | GI50 (RXF 393 renal): 2.57 µM | TGI (RXF 393 renal): 9.23 µM
